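1) Cells in 96-well plates. 2) Compound, 48 h, 5 concentrations. 3) Linear interpolation between surrounding doses. 4) Unreached endpoint = highest concentration. Abbreviation: GI50, concentration required for 50% inhibition of growth.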 Activity calls are given as the source filed them. Rule as the data show it: active = GI50 up to about 1.1 µM and inactive = higher.
Tests used:
Assay in all cases: growth of human tumour cells (NCI), 48 h
A498 = system: A498
ACHN = system: ACHN
CCRF-CEM = system: CCRF-CEM
HCT-116 = system: HCT-116
HT-29 = system: HT-29
Hs-578T = system: Hs-578T
MCF7 = system: MCF7
MDA-MB-435 = system: MDA-MB-435
NCI-H23 = system: NCI-H23
NCI-H522 = system: NCI-H522
OVCAR-8 = system: OVCAR-8
RXF 393 = system: RXF 393
SF-295 = system: SF-295
SK-OV-3 = system: SK-OV-3
SN12C = system: SN12C
SNB-19 = system: SNB-19
TK-10 = system: TK-10
UACC-62 = system: UACC-62
UO-31 = system: UO-31
RPMI-8226 = system: RPMI-8226

| SMILES | GI50 (A498) | GI50 (ACHN) | GI50 (CCRF-CEM) | GI50 (HCT-116) | GI50 (HT-29) | GI50 (Hs-578T) | GI50 (MCF7) | GI50 (MDA-MB-435) | GI50 (NCI-H23) | GI50 (NCI-H522) | GI50 (OVCAR-8) | GI50 (RXF 393) | GI50 (SF-295) | GI50 (SK-OV-3) | GI50 (SN12C) | GI50 (SNB-19) | GI50 (TK-10) | GI50 (UACC-62) | GI50 (UO-31) | GI50 (RPMI-8226) |
| --- | --- | --- | --- | --- | --- | --- | --- | --- | --- | --- | --- | --- | --- | --- | --- | --- | --- | --- | --- | --- |
| N=c1sc2ccccc2n1CC[S-].c1ccc2c(c1)sc1[n+]2CCS1 | 14.7 µM (inactive) | 16.3 µM (inactive) | 9.06 µM (inactive) | 16.9 µM (inactive) | 19 µM (inactive) | 42.6 µM (inactive) | 12.9 µM (inactive) | 15.7 µM (inactive) | 16.1 µM (inactive) | 18 µM (inactive) | 17.1 µM (inactive) | 20.7 µM (inactive) | 17.4 µM (inactive) | 23.1 µM (inactive) | 21.1 µM (inactive) | 19.3 µM (inactive) | 22.8 µM (inactive) | 14 µM (inactive) | 12.5 µM (inactive) | – |
| COc1ccc(-c2oc3c(OC)c(OC)cc(O)c3c(=O)c2OC)cc1 | 45.8 µM (inactive) | > 100 µM (inactive) | > 100 µM (inactive) | 46.5 µM (inactive) | > 100 µM (inactive) | 58.3 µM (inactive) | > 100 µM (inactive) | > 100 µM (inactive) | > 100 µM (inactive) | 54.8 µM (inactive) | > 100 µM (inactive) | > 100 µM (inactive) | > 100 µM (inactive) | 36.5 µM (inactive) | > 100 µM (inactive) | > 100 µM (inactive) | > 100 µM (inactive) | > 100 µM (inactive) | > 100 µM (inactive) | – |
| Cc1nc2ccc(NC3OC(CO)C(O)C(O)C3O)cc2c(=O)n1-c1ccccc1 (stereo not drawn) | > 100 µM (inactive) | > 100 µM (inactive) | – | > 100 µM (inactive) | > 100 µM (inactive) | > 100 µM (inactive) | > 100 µM (inactive) | > 100 µM (inactive) | > 100 µM (inactive) | > 100 µM (inactive) | > 100 µM (inactive) | > 100 µM (inactive) | > 100 µM (inactive) | – | > 100 µM (inactive) | > 100 µM (inactive) | > 100 µM (inactive) | > 100 µM (inactive) | > 100 µM (inactive) | > 100 µM (inactive) |
| COc1cc(C(c2c(O)c3ccccc3oc2=O)c2c(O)c3ccccc3oc2=O)cc(Br)c1O | 15.9 µM (inactive) | 17.4 µM (inactive) | – | 17.5 µM (inactive) | 20 µM (inactive) | 20.2 µM (inactive) | 16.2 µM (inactive) | 20.3 µM (inactive) | 22.2 µM (inactive) | 12.9 µM (inactive) | 17.3 µM (inactive) | 17.4 µM (inactive) | 21.1 µM (inactive) | 20.1 µM (inactive) | 15.8 µM (inactive) | 18.6 µM (inactive) | 16.1 µM (inactive) | 16 µM (inactive) | 16.4 µM (inactive) | 19.8 µM (inactive) |
| COc1ccc(C(=O)/C=C/c2ccc(OCCCCCCCCCCOc3ccc(/C=C/C(=O)c4ccc(OC)cc4)cc3)cc2)cc1 | – | > 100 µM (inactive) | > 100 µM (inactive) | > 100 µM (inactive) | > 100 µM (inactive) | > 100 µM (inactive) | > 100 µM (inactive) | > 100 µM (inactive) | – | – | > 100 µM (inactive) | > 100 µM (inactive) | > 100 µM (inactive) | > 100 µM (inactive) | > 100 µM (inactive) | > 100 µM (inactive) | > 100 µM (inactive) | > 100 µM (inactive) | > 100 µM (inactive) | > 100 µM (inactive) |
| COc1cc(C(=O)/C=C/c2ccc(OCC#N)cc2)cc(OC)c1OC | 21.4 µM (inactive) | 23.5 µM (inactive) | 19.4 µM (inactive) | 13.9 µM (inactive) | 31.7 µM (inactive) | 25.1 µM (inactive) | 9.02 µM (inactive) | 20.5 µM (inactive) | 19.5 µM (inactive) | 17.3 µM (inactive) | 29.5 µM (inactive) | 18.1 µM (inactive) | 46.2 µM (inactive) | 40.6 µM (inactive) | 18.9 µM (inactive) | 20.3 µM (inactive) | 25.1 µM (inactive) | 21.2 µM (inactive) | 17.6 µM (inactive) | – |
| Cc1nc2c(o1)C(=O)c1ccccc1/C2=N/C1CCCCC1N (stereo not drawn) | 1.73 µM (inactive) | 0.649 µM (active) | 0.247 µM (active) | 0.259 µM (active) | 2.28 µM (inactive) | 0.644 µM (active) | 0.265 µM (active) | 0.162 µM (active) | 0.0975 µM (active) | 1.06 µM (active) | 0.274 µM (active) | – | – | – | 0.386 µM (active) | 0.787 µM (active) | 1.98 µM (inactive) | 0.169 µM (active) | 1.64 µM (inactive) | 0.565 µM (active) |
| CN(Cc1cccc2ccsc12)/N=C\c1ccc(Cl)cc1 | 93.3 µM (inactive) | > 100 µM (inactive) | 31.3 µM (inactive) | 28.6 µM (inactive) | 26.7 µM (inactive) | > 100 µM (inactive) | 32.7 µM (inactive) | 49.3 µM (inactive) | 28.4 µM (inactive) | 51.3 µM (inactive) | > 100 µM (inactive) | > 100 µM (inactive) | 30.9 µM (inactive) | > 100 µM (inactive) | > 100 µM (inactive) | > 100 µM (inactive) | > 100 µM (inactive) | > 100 µM (inactive) | 78.3 µM (inactive) | – |
| N#Cc1c(NC(=S)Nc2ccccc2)sc2c1CCCC2 | > 100 µM (inactive) | > 100 µM (inactive) | – | > 100 µM (inactive) | > 100 µM (inactive) | > 100 µM (inactive) | > 100 µM (inactive) | > 100 µM (inactive) | > 100 µM (inactive) | > 100 µM (inactive) | > 100 µM (inactive) | > 100 µM (inactive) | > 100 µM (inactive) | – | > 100 µM (inactive) | > 100 µM (inactive) | > 100 µM (inactive) | 94.2 µM (inactive) | > 100 µM (inactive) | > 100 µM (inactive) |
| CC(C)=CCC[C@@H](C)c1c2nc3ccccc3[nH]c-2c(C)c(=O)c1O | 2.12 µM (inactive) | 0.568 µM (active) | 0.27 µM (active) | 1.36 µM (inactive) | 5.32 µM (inactive) | 2.28 µM (inactive) | 2.18 µM (inactive) | 2.73 µM (inactive) | 1.89 µM (inactive) | – | 1.71 µM (inactive) | 1.14 µM (inactive) | 0.946 µM (active) | 2.15 µM (inactive) | 1.24 µM (inactive) | 2.5 µM (inactive) | 2.58 µM (inactive) | 1.09 µM (active) | 0.714 µM (active) | 8.73 µM (inactive) |
| CNC(=O)C1(C#N)C(c2ccccc2)C(C#N)(C(=O)NC)C1c1ccccc1 (stereo not drawn) | > 100 µM (inactive) | > 100 µM (inactive) | > 100 µM (inactive) | > 100 µM (inactive) | > 100 µM (inactive) | > 100 µM (inactive) | > 100 µM (inactive) | > 100 µM (inactive) | > 100 µM (inactive) | > 100 µM (inactive) | > 100 µM (inactive) | – | > 100 µM (inactive) | > 100 µM (inactive) | > 100 µM (inactive) | 27.4 µM (inactive) | > 100 µM (inactive) | – | > 100 µM (inactive) | 87.1 µM (inactive) |
| Cc1cc(OCc2nnc3n2S(=O)(=O)c2ccccc2N3C)ccc1Cl | 24.6 µM (inactive) | 19.9 µM (inactive) | 15.7 µM (inactive) | 39.5 µM (inactive) | 52 µM (inactive) | 40.8 µM (inactive) | 89.7 µM (inactive) | > 100 µM (inactive) | 34.4 µM (inactive) | 6.79 µM (inactive) | 26.3 µM (inactive) | 21.2 µM (inactive) | 18.8 µM (inactive) | 10.4 µM (inactive) | 32.4 µM (inactive) | 19.3 µM (inactive) | 29.9 µM (inactive) | 17.2 µM (inactive) | 58.3 µM (inactive) | – |
| FC(F)(F)c1ccc(C2=N/S(c3ccccc3)=N\C(c3ccc(C(F)(F)F)cc3)=N/S(c3ccccc3)=N\2)cc1 (stereo not drawn) | – | > 100 µM (inactive) | > 100 µM (inactive) | > 100 µM (inactive) | > 100 µM (inactive) | > 100 µM (inactive) | > 100 µM (inactive) | > 100 µM (inactive) | > 100 µM (inactive) | > 100 µM (inactive) | > 100 µM (inactive) | > 100 µM (inactive) | > 100 µM (inactive) | > 100 µM (inactive) | > 100 µM (inactive) | > 100 µM (inactive) | > 100 µM (inactive) | > 100 µM (inactive) | > 100 µM (inactive) | > 100 µM (inactive) |
| COc1ccc(C(=O)/C=C/c2ccc(OCC(=O)O)cc2)cc1 | > 100 µM (inactive) | > 100 µM (inactive) | 31.7 µM (inactive) | 47.1 µM (inactive) | > 100 µM (inactive) | 70.1 µM (inactive) | 42.8 µM (inactive) | 32.8 µM (inactive) | > 100 µM (inactive) | 36 µM (inactive) | 74.3 µM (inactive) | > 100 µM (inactive) | > 100 µM (inactive) | – | 71.3 µM (inactive) | 98.6 µM (inactive) | > 100 µM (inactive) | 52.1 µM (inactive) | > 100 µM (inactive) | > 100 µM (inactive) |
| Cc1cc(-c2nc3cc(O)ccc3s2)ccc1N | 24.7 µM (inactive) | 22.5 µM (inactive) | 27.7 µM (inactive) | 22.8 µM (inactive) | 21.5 µM (inactive) | 35.2 µM (inactive) | 17.6 µM (inactive) | 33.3 µM (inactive) | 46.1 µM (inactive) | 31 µM (inactive) | 47.1 µM (inactive) | 27.5 µM (inactive) | 26 µM (inactive) | 19.3 µM (inactive) | 28.8 µM (inactive) | 33.7 µM (inactive) | 38.9 µM (inactive) | 19.9 µM (inactive) | 18.7 µM (inactive) | – |

Source: ChEMBL document CHEMBL1201862, “PubChem BioAssay data set” (2004)
